Bounds are passed on as bounds.

Assay [1] deals with MT4. Nature of the assay: Effective concentration required to inhibit HIV-1-induced cytopathicity in MT-4 cells. It counts as functional, cell-based. The note with it: Homo sapiens. For orientation: Cytopathic effects are the visible damage that an infection or toxin causes in cultured cells.
In assay [2] the test system is MT4. Nature of the assay: Cytotoxic concentration required to reduce MT-4 cells viability by 50%. In kind it is functional. The note with it: Homo sapiens.

Usually EC50 stands for the concentration giving half of the maximal effect. A lower EC50 goes with a more potent agent. As a reminder, the CC50 is the concentration that lowers cell viability or growth by half. A lower CC50 goes with harm at low concentration. In turn, `Cc1cn([C@H]2C[C@@](C)(O)[C@@H](CO)O2)c(=O)[nH]c1=O` registered an EC50 in the assay with MT4 [1] of over 500 µM. In the assay with MT4 [2], this compound came in with a 50% cytotoxic concentration (CC50) of over 500 µM.

In turn, `Cc1cn([C@H]2C[C@](C)(O)[C@@H](COP(=O)(O)O)O2)c(=O)[nH]c1=O` had a 50% effective concentration (EC50) in the assay on MT4 [1] of 72 µM. Further, the CC50 in the assay on MT4 [2] is over 500 µM.

As for `Cc1cn([C@H]2C[C@@](C)(O)[C@@H](COP(=O)(O)O)O2)c(=O)[nH]c1=O`, the EC50 in the assay on MT4 [1] amounted to 243 µM. The cytotoxic concentration (CC50) with MT4 [2] was over 500 µM.

For `Cc1cn([C@H]2C[C@](C)(O)[C@@H](CO)O2)c(=O)[nH]c1=O`, in the assay on MT4 [1], the EC50 is over 500 µM. In the assay on MT4 [2], the 50% cytotoxic concentration (CC50) was over 500 µM.

(Values after ChEMBL document CHEMBL1126103, “3'-C-branched 2'-deoxy-5-methyluridines: synthesis, enzyme inhibition, and antiviral properties” (J Med Chem, 1992).)
